The values that follow come from US11857544B2, “Composition or method including (t)ew-7197 for treating or preventing corneal endothelial diseases” (THE DOSHISHA, priority 2017, dated 2024).

Structures are written as SMILES.

For data set [1], the system named is immortalized human corneal endothelial cells from a Fuchs' endothelial corneal dystrophy patient (iFECD). Briefly: Suppression of TGF-β-induced corneal endothelial cell disorder, observed under a phase contrast microscope. Format: cell-based. The following applies: for effect of suppressing corneal endothelial cell disorder: Example 1, iFECD, 24 h pretreatment then 10 ng/ml TGF-β 24 h; for effect of suppressing corneal endothelial cell disorders: Example 2, iFECD + TGF-β. As for the experimental part: The medium was removed from a culture dish culturing immortalized human corneal endothelial cells from a Fuchs' endothelial corneal dystrophy patient (iFECD), and 1×PBS(-) preheated to 37° C. was added and washed. This was repeated twice. 1×PBS(-) was added again and the medium was incubated for 5 minutes at 37° C. (5% CO2). After removing the PBS(-), 0.05% Trypsin-EDTA (Nacalai Tesque, 32778-34) was added and incubated for 5 minutes at 37° C. (5% CO2). The medium was then suspended and centrifuged for 3 minutes at 1500 rpm to retrieve cells. DMEM (Nacalai Tesque, 08456-36)+10% FBS (Biowest, S1820-500)+1% P/S (Nacalai Tesque, 26252-94) was used as the medium. The immortalized human corneal endothelial cells from a Fuchs' endothelial corneal dystrophy patient (iFECD) were seeded on a 12-well plate at a ratio of 8.0×10^4 cells per well and cultured for 24 hours at 37° C. (5% CO2). DMEM+10% FBS+1% P/S was used as the medium. After 24 hours, the medium was exchanged and cultured again for 24 hours. DMEM+2% FBS+1% P/S was used as the medium. After 24 hours, the medium was removed. 10 ng/ml of Transforming Growth Factor-132 Human recombinant (WAKO, 200-19911) was added, and the medium was cultured for 24 hours. DMEM+2% FBS+1% P/S was used as the medium. After 24 hours, the cell morphology and apoptosis were observed under a phase contrast microscope. After […] were seeded on a 12-well plate and cultured for 24 hours, the medium was removed. SB431542 (WAKO, 192-16541) and EW-7197 (Selleck Chemicals, 57530) were added so that the final concentration would each be 0.1, 0.3, 1, 3, or 10 μM, and the medium was cultured for 24 hours. DMEM+2% FBS+1% P/S was used as the medium. After 24 hours, the medium was removed. 10 ng/ml of Transforming Growth Factor-132 Human recombinant (WAKO, 200-19911) as well as SB431542 and EW-7197 were added so that the final concentration would each be 0.1, 0.3, 1, 3, or 10 μM, and the medium was cultured for 24 hours. DMEM+2% FBS+1% P/S was used as the medium. After 24 hours, the cell morphology and apoptosis were observed under a phase contrast microscope. After […] were seeded on a 12-well plate at a ratio of 7.0×10^4 cells and cultured for 24 hours, the medium was removed. EW-7197 (Selleck Chemicals, 57530) was added so that the final concentration would be 0.001, 0.003, 0.01, 0.03, 0.1, 0.3, 1, 3, 10, or 30 μM, and the medium was cultured for 24 hours. DMEM+2% FBS+1% P/S was used as the medium. After 24 hours, the medium was removed. 10 ng/ml of Transforming Growth Factor-132 Human recombinant (WAKO, 200-19911) and EW-7197 were added so that the final concentration would be 0.001, 0.003, 0.01, 0.03, 0.1, 0.3, 1, 3, 10, or 30 μM, and the medium was cultured for 24 hours. DMEM+2% FBS+1% P/S was used as the medium. After 24 hours, the cell morphology and apoptosis were observed under a phase contrast microscope.

In the next data set the test system is iFECD. In words: Cell survival rate (Cell Titer-Glo Luminescent Cell Viability Assay). The data set is classed as cell-based, human. As for the experimental part: were seeded on a 96-well plate at a ratio of 3×10^3 cells per well, and cultured until reaching confluence at 37° C. (5% CO2). DMEM+10% FBS+1% P/S was used as the medium. After 24 hours, the medium was removed. SB431542 (WAKO, 192-16541) and EW-7197 (Selleck Chemicals, 57530) were added so that the final concentration would each be 0.01, 0.1, 1, or 10 μM, and the medium was cultured for 48 hours. DMEM+2% FBS+1% P/S was used as the medium. After 24 hours, the cell morphology was observed under a phase contrast microscope. After observation, the cell survival rate was analyzed using Cell Titer-Glo Luminescent Cell Viability Assay by the following procedures. The medium was discarded so that the amount would be 50 μl per well, and Cell Titer-Glo Luminescent Cell Viability Assay solution (Promega, G7572) was added at 50 μl/well so that the ratio to the medium would be 1:1. The process was hereinafter conducted without exposure to light. The mixture was mixed thoroughly using a shaker for 2 minutes at about 120 min^-1, and incubated for 10 minutes. After the incubation, 80 μl was transferred to an Assay plate (Corning, 3912, Assay plate 96 well, white polystyrene), and absorbance was measured using a GloMax-Multi Detection System (Promega, E7051).
On the technique in general: Cellular ATP, detected with luciferase, serves as a proxy for viable cell number.

Take `Cc1cccc(-c2[nH]c(CNc3ccccc3F)nc2-c2ccc3ncnn3c2)n1` [EW-7197, N-((4-([1,2,4]triazolo[1,5-a]pyridin-6-yl)-5-(6-methylpyridin-2-yl)-1H-imidazol-2-yl)methyl)-2-fluoroaniline]: the “effect of suppressing corneal endothelial cell disorder” value is reported as “confirmed” in data set [1] (compound at 3 μM and 10 μM); “effectively suppressed” in data set [1] (compound at 0.1, 0.3, and 1 μM). Moreover, the “effect of suppressing corneal endothelial cell disorders” value in data set [1] (compound at 3 μM and 10 μM) is recorded as “effectively suppressed”; in data set [1] (compound at 0.03, 0.1, 0.3, and 1 μM), “particularly excellent effect of suppressing corneal endothelial cell disorders”. Also, the “effect of suppressing corneal endothelial disorders” value in data set [1] (summary statement, at a low concentration of 0.03 μM) is on record as “very potent effect of suppressing corneal endothelial disorders”. Moreover, in the data set on iFECD (iFECD, all concentrations of 0.01, 0.1, 1, and 10 μM, 48 hours), the “cell survival rate compared to a control group” value is on record as “a significant difference was not found”. The “toxicity to cells in a cell survival rate test” value in the data set on iFECD (summary statement) is “hardly found”.
